According to paper PMC4561207 (Child's nervous system : ChNS : official journal of the …, 2015):

Assay: Toxicities attributed to Cediranib
Assay type: in vivo, human

COc1cc2c(Oc3ccc4[nH]c(C)cc4c3F)ncnc2cc1OCCCN1CCCC1 [cediranib, Cediranib]
diarrhea, number of patients (all grades): Thirty-two
Abdominal pain, events (patients) (grade 1 TOX): 5(5)
Acidosis, events (patients) (grade 1 TOX): 1(1)
Alanine aminotransferase increased, events (patients) (grade 1 TOX): 41(22)
Alkaline phosphatase increased, events (patients) (grade 1 TOX): 2(2)
Anal mucositis, events (patients) (grade 1 TOX): 1(1)
Anal pain, events (patients) (grade 1 TOX): 1(1)
Anemia, events (patients) (grade 1 TOX): 2(2)
Anorexia, events (patients) (grade 1 TOX): 8(8)
Aspartate aminotransferase increased, events (patients) (grade 1 TOX): 37(19)
Back pain, events (patients) (grade 1 TOX): 1(1)
Blood bilirubin increased, events (patients) (grade 1 TOX): 13(7)
Bone pain, events (patients) (grade 1 TOX): 1(1)
Cardiac troponin I increased, events (patients) (grade 1 TOX): 1(1)
Cholesterol high, events (patients) (grade 1 TOX): 1(1)
Chronic kidney disease, events (patients) (grade 1 TOX): 1(1)
Constipation, events (patients) (grade 1 TOX): 5(2)
Cough, events (patients) (grade 1 TOX): 1(1)
Creatinine increased, events (patients) (grade 1 TOX): 1(1)
Dehydration, events (patients) (grade 1 TOX): 1(1)
Depression, events (patients) (grade 1 TOX): 1(1)
Diarrhea, events (patients) (grade 1 TOX): 43(30)
Dizziness, events (patients) (grade 1 TOX): 3(3)
Dry mouth, events (patients) (grade 1 TOX): 1(1)
Dry skin, events (patients) (grade 1 TOX): 1(1)
Dyspepsia, events (patients) (grade 1 TOX): 3(3)
Edema face, events (patients) (grade 1 TOX): 1(1)
Edema limbs, events (patients) (grade 1 TOX): 1(1)
Endocrine disorders - Other, specify, events (patients) (grade 1 TOX): 1(1)
Epistaxis, events (patients) (grade 1 TOX): 5(4)
Fatigue, events (patients) (grade 1 TOX): 7(7)
Fecal incontinence, events (patients) (grade 1 TOX): 1(1)
Fever, events (patients) (grade 1 TOX): 1(1)
GGT increased, events (patients) (grade 1 TOX): 1(1)
Gastritis, events (patients) (grade 1 TOX): 1(1)
Gastrointestinal disorders - Other, specify, events (patients) (grade 1 TOX): 1(1)
Headache, events (patients) (grade 1 TOX): 5(4)
Hematuria, events (patients) (grade 1 TOX): 5(3)
Hemoglobin increased, events (patients) (grade 1 TOX): 6(2)
Hoarseness, events (patients) (grade 1 TOX): 1(1)
Hypercalcemia, events (patients) (grade 1 TOX): 3(2)
Hyperglycemia, events (patients) (grade 1 TOX): 7(6)
Hyperkalemia, events (patients) (grade 1 TOX): 2(2)
Hypermagnesemia, events (patients) (grade 1 TOX): 7(5)
Hypernatremia, events (patients) (grade 1 TOX): 5(4)
Hypertension, events (patients) (grade 1 TOX): 19(13)
Hyperthyroidism, events (patients) (grade 1 TOX): 2(2)
Hypoalbuminemia, events (patients) (grade 1 TOX): 20(13)
Hypocalcemia, events (patients) (grade 1 TOX): 16(8)
Hypoglycemia, events (patients) (grade 1 TOX): 2(2)
Hypokalemia, events (patients) (grade 1 TOX): 14(11)
Hypomagnesemia, events (patients) (grade 1 TOX): 6(4)
Hyponatremia, events (patients) (grade 1 TOX): 9(5)
Hypophosphatemia, events (patients) (grade 1 TOX): 10(8)
Hypothyroidism, events (patients) (grade 1 TOX): 10(10)
INR increased, events (patients) (grade 1 TOX): 1(1)
Investigations - Other, specify, events (patients) (grade 1 TOX): 2(2)
Joint effusion, events (patients) (grade 1 TOX): 1(1)
Leukoencephalopathy, events (patients) (grade 1 TOX): 1(1)
Lymphocyte count decreased, events (patients) (grade 1 TOX): 11(8)
Malaise, events (patients) (grade 1 TOX): 2(1)
Mucositis oral, events (patients) (grade 1 TOX): 1(1)
Myalgia, events (patients) (grade 1 TOX): 1(1)
Nausea, events (patients) (grade 1 TOX): 15(10)
Neutrophil count decreased, events (patients) (grade 1 TOX): 11(8)
Non-cardiac chest pain, events (patients) (grade 1 TOX): 1(1)
Oral pain, events (patients) (grade 1 TOX): 2(2)
Pain in extremity, events (patients) (grade 1 TOX): 3(3)
Palmar-plantar erythrodysesthesia syndrome, events (patients) (grade 1 TOX): 4(4)
Platelet count decreased, events (patients) (grade 1 TOX): 22(17)
Proteinuria, events (patients) (grade 1 TOX): 20(13)
Rash acneiform, events (patients) (grade 1 TOX): 2(2)
Rash maculo-papular, events (patients) (grade 1 TOX): 5(5)
Rectal pain, events (patients) (grade 1 TOX): 1(1)
Renal and urinary disorders - Other, specify, events (patients) (grade 1 TOX): 1(1)
Serum amylase increased, events (patients) (grade 1 TOX): 1(1)
Skin and subcutaneous tissue disorders - Other, specify, events (patients) (grade 1 TOX): 1(1)
Stomach pain, events (patients) (grade 1 TOX): 2(2)
Urinary frequency, events (patients) (grade 1 TOX): 1(1)
Urinary retention, events (patients) (grade 1 TOX): 1(1)
Vascular disorders - Other, specify, events (patients) (grade 1 TOX): 2(2)
Voice alteration, events (patients) (grade 1 TOX): 2(2)
Vomiting, events (patients) (grade 1 TOX): 23(12)
Weight loss, events (patients) (grade 1 TOX): 1(1)
White blood cell decreased, events (patients) (grade 1 TOX): 13(11)
Abdominal pain, events (patients) (grade 2 TOX): 5(5)
Alanine aminotransferase increased, events (patients) (grade 2 TOX): 17(9)
Anorexia, events (patients) (grade 2 TOX): 5(5)
Arthralgia, events (patients) (grade 2 TOX): 1(1)
Aspartate aminotransferase increased, events (patients) (grade 2 TOX): 4(4)
Back pain, events (patients) (grade 2 TOX): 1(1)
Bone pain, events (patients) (grade 2 TOX): 1(1)
Constipation, events (patients) (grade 2 TOX): 1(1)
Dehydration, events (patients) (grade 2 TOX): 1(1)
Diarrhea, events (patients) (grade 2 TOX): 16(11)
Dizziness, events (patients) (grade 2 TOX): 2(1)
Fatigue, events (patients) (grade 2 TOX): 9(9)
Flushing, events (patients) (grade 2 TOX): 3(1)
Gastrointestinal disorders - Other, specify, events (patients) (grade 2 TOX): 1(1)
Headache, events (patients) (grade 2 TOX): 3(3)
Hyperglycemia, events (patients) (grade 2 TOX): 2(2)
Hypertension, events (patients) (grade 2 TOX): 28(28)
Hypoalbuminemia, events (patients) (grade 2 TOX): 6(4)
Hypocalcemia, events (patients) (grade 2 TOX): 1(1)
Hypoglycemia, events (patients) (grade 2 TOX): 1(1)
Hypomagnesemia, events (patients) (grade 2 TOX): 1(1)
Hypophosphatemia, events (patients) (grade 2 TOX): 4(2)
Hypothyroidism, events (patients) (grade 2 TOX): 10(10)
Hypoxia, events (patients) (grade 2 TOX): 1(1)
Intracranial hemorrhage, events (patients) (grade 2 TOX): 4(4)
Lipase increased, events (patients) (grade 2 TOX): 1(1)
Lymphocyte count decreased, events (patients) (grade 2 TOX): 7(5)
Mucositis oral, events (patients) (grade 2 TOX): 2(2)
Myalgia, events (patients) (grade 2 TOX): 1(1)
Nausea, events (patients) (grade 2 TOX): 3(3)
Neutrophil count decreased, events (patients) (grade 2 TOX): 7(4)
Pain in extremity, events (patients) (grade 2 TOX): 1(1)
Pain, events (patients) (grade 2 TOX): 1(1)
Palmar-plantar erythrodysesthesia syndrome, events (patients) (grade 2 TOX): 10(7)
Pericardial effusion, events (patients) (grade 2 TOX): 1(1)
Peripheral motor neuropathy, events (patients) (grade 2 TOX): 1(1)
Platelet count decreased, events (patients) (grade 2 TOX): 3(3)
Pleural effusion, events (patients) (grade 2 TOX): 1(1)
Proteinuria, events (patients) (grade 2 TOX): 13(12)
Respiratory, thoracic and mediastinal disorders - Other, specify, events (patients) (grade 2 TOX): 1(1)
Reversible posterior leukoencephalopathy syndrome, events (patients) (grade 2 TOX): 1(1)
Seizure, events (patients) (grade 2 TOX): 1(1)
Skin ulceration, events (patients) (grade 2 TOX): 1(1)
Vomiting, events (patients) (grade 2 TOX): 3(3)
Weight loss, events (patients) (grade 2 TOX): 1(1)
White blood cell decreased, events (patients) (grade 2 TOX): 4(2)
Alanine aminotransferase increased, events (patients) (grade 3 TOX): 6(5)
Anemia, events (patients) (grade 3 TOX): 1(1)
Aspartate aminotransferase increased, events (patients) (grade 3 TOX): 1(1)
Blurred vision, events (patients) (grade 3 TOX): 1(1)
Capillary leak syndrome, events (patients) (grade 3 TOX): 1(1)
Chest wall pain, events (patients) (grade 3 TOX): 1(1)
Confusion, events (patients) (grade 3 TOX): 1(1)
Dehydration, events (patients) (grade 3 TOX): 2(2)
Depressed level of consciousness, events (patients) (grade 3 TOX): 1(1)
Diarrhea, events (patients) (grade 3 TOX): 2(2)
Dysphasia, events (patients) (grade 3 TOX): 1(1)
Enterocolitis, events (patients) (grade 3 TOX): 1(1)
